Measurements: patent publication US10517889B2, “Modulators of SMAD7 expression” (Ionis Pharmaceuticals, Inc., priority 2017, dated 2019)
Strand notation (5' to 3'): a small letter for the sugar, then the base; units joined by * are phosphorothioate-linked, units joined directly phosphodiester-linked; [ ] holds rarer units or linkages, { } end groups; capitals alone tell only the bases. k = constrained ethyl (cEt); [5mC] = 5-methylcytosine; d = 2'-deoxy (DNA)

The substances below were run on human SMAD7 mRNA (assay: Antisense inhibition of human SMAD7 mRNA expression in Hep3B cells by 3-10-3 cEt gapmers, 10,000 nM, electroporation (Example 2)). Conditions: Hep3B cells, 10,000 nM antisense oligonucleotide, electroporation, approximately 24 hours, RT-PCR primer probe set RTS5062, relative to untreated control cells.
Format: cell-based
Outline: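 Hep3B cells (20,000/well) were electroporated with 10,000 nM 3-10-3 cEt gapmer (16-mer, phosphorothioate, 5-methylcytosines) and harvested after about 24 h. SMAD7 mRNA quantified by RT-qPCR with primer probe set RTS5062, normalized to total RNA by RiboGreen; percent inhibition relative to untreated cells.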
For “799916 (antisense k[5mC]*kA*k[5mC]*dA*dA*dA*dT*d[5mC]*dA*dA*dA*dA*dG*k[5mC]*kT*k[5mC]) [compound 799916]”, the “% Inhibition” value was 47%. “800057 (antisense kT*kT*k[5mC]*dA*d[5mC]*dT*dT*dG*dT*dT*dT*d[5mC]*dT*kG*k[5mC]*kA) [compound 800057]” was tested, and the “% Inhibition” value was 46%. For “799857 (kA*kG*kA*dA*d[5mC]*dT*dG*dA*dA*dA*dG*d[5mC]*dG*kG*k[5mC]*kG; antisense) [compound 799857]”, the “% Inhibition” value was 31%. In the case of “798857 (kT*kG*k[5mC]*dT*dG*d[5mC]*dG*dG*dT*dT*dG*dT*dA*k[5mC]*kA*k[5mC]; antisense) [compound 798857]”, the “% Inhibition” value is reported as 11%. “798853 (k[5mC]*k[5mC]*kA*d[5mC]*dA*d[5mC]*dA*d[5mC]*d[5mC]*dA*dT*d[5mC]*d[5mC]*kA*k[5mC]*k[5mC]; antisense) [compound 798853]” was tested, and the “% Inhibition” value was 7%. With “799912 (antisense k[5mC]*kT*k[5mC]*dA*dG*dA*dG*dG*dA*dA*dG*dG*dG*kT*kG*kG) [compound 799912]” the “% Inhibition” value was 22%. “799937 (antisense kT*k[5mC]*kT*dT*dT*dA*dA*dT*dT*dT*d[5mC]*dA*dG*kA*kG*kT) [compound 799937]” was tested, and the “% Inhibition” value was 24%. With “799998 (k[5mC]*kA*kG*dT*dA*dA*dA*dG*dA*d[5mC]*dA*dT*dG*kA*kG*k[5mC]; antisense) [compound 799998]” the “% Inhibition” value was 45%. “798892 (k[5mC]*k[5mC]*k[5mC]*d[5mC]*dA*dG*d[5mC]*d[5mC]*d[5mC]*dT*dT*d[5mC]*dA*k[5mC]*kA*kA; antisense) [compound 798892]” was tested, and the “% Inhibition” value was 39%.

Same assay, conditions: Hep3B cells, electroporation with 10,000 nM antisense oligonucleotide, approximately 24 hours, RTS5062, percent inhibition of SMAD7 mRNA relative to untreated control cells
“799662 (antisense k[5mC]*kG*kT*dG*dA*dG*d[5mC]*dA*d[5mC]*dT*dT*d[5mC]*dT*kG*kT*k[5mC]) [compound 799662]” was tested, and the “% Inhibition” value was 55%.

Same assay, conditions: Hep3B cells, electroporation with 10,000 nM antisense oligonucleotide, approximately 24 hours, SMAD7 mRNA by RT-PCR (RTS5062), relative to untreated control cells
With “830018 (antisense k[5mC]*k[5mC]*k[5mC]*dA*dA*d[5mC]*dA*dG*d[5mC]*d[5mC]*dA*dA*dA*kA*k[5mC]*kG) [compound 830018]” the “% Inhibition” value was 10%. With “799427 (antisense kG*kT*k[5mC]*d[5mC]*dA*dG*dG*d[5mC]*d[5mC]*dT*d[5mC]*d[5mC]*d[5mC]*kA*kG*kA) [compound 799427]” the “% Inhibition” value was 20%. In the case of “798751 (k[5mC]*k[5mC]*kG*dG*dG*d[5mC]*dA*dG*d[5mC]*dA*dG*dG*dA*kG*kG*k[5mC]; antisense) [compound 798751]”, the “% Inhibition” value is reported as 0%. With “799474 (antisense k[5mC]*kA*kA*dG*dA*dG*dT*d[5mC]*d[5mC]*dA*dG*d[5mC]*d[5mC]*k[5mC]*kT*kA) [compound 799474]” the “% Inhibition” value was 39%. “830206 (kT*kG*kA*d[5mC]*dT*d[5mC]*dA*dT*d[5mC]*dA*dG*dG*d[5mC]*kA*kT*kT; antisense) [compound 830206]” was tested, and the “% Inhibition” value was 51%. “798886 (kT*k[5mC]*kT*dG*d[5mC]*dA*d[5mC]*dG*dG*dT*dA*dA*dA*kG*k[5mC]*k[5mC]; antisense) [compound 798886]” was tested, and the “% Inhibition” value was 29%.

Same assay, conditions: Hep3B cells, electroporation with 10,000 nM antisense oligonucleotide, approximately 24 hours, primer probe set RTS5062, relative to untreated control cells
“798945 (antisense k[5mC]*kA*k[5mC]*dA*dA*dA*d[5mC]*dG*dA*dG*dG*dA*d[5mC]*kG*kA*kG) [compound 798945]” was tested, and the “% inhibition of SMAD7 mRNA expression” value was 19%. In the case of “799153 (antisense kG*kT*kT*dA*dG*dG*dT*dG*dT*d[5mC]*dA*dG*d[5mC]*k[5mC]*kT*kA) [compound 799153]”, the “% Inhibition” value is reported as 68%. In the case of “790620 (kT*kA*kA*dT*dA*dA*dA*dT*d[5mC]*dT*d[5mC]*dA*dG*kG*kT*kT; antisense) [compound 790620]”, the “% Inhibition” value is reported as 30%. With “799200 (antisense kT*k[5mC]*kA*dG*dG*dA*dG*dT*d[5mC]*d[5mC]*dT*dT*dT*k[5mC]*kT*k[5mC]) [compound 799200]” the “% inhibition of SMAD7 mRNA expression” value was 69%. With “799442 (antisense kG*kA*kT*dT*dT*dT*dA*dA*dA*dA*dG*dA*dG*kG*k[5mC]*k[5mC]) [compound 799442]” the “% inhibition of SMAD7 mRNA expression” value was 0%. For “799155 (antisense kA*kG*kA*dA*dG*dA*dG*dT*dT*dA*dG*dG*dT*kG*kT*k[5mC]) [compound 799155]”, the “% Inhibition” value was 32%. In the case of “799248 (antisense kG*k[5mC]*k[5mC]*dA*d[5mC]*dG*dA*d[5mC]*dA*dG*dT*dA*dT*k[5mC]*kT*kG) [compound 799248]”, the “% inhibition of SMAD7 mRNA expression” value is reported as 40%. “799130 (antisense kG*kT*k[5mC]*d[5mC]*d[5mC]*dT*d[5mC]*d[5mC]*d[5mC]*dA*dG*dG*dG*kA*k[5mC]*kA) [compound 799130]” was tested, and the “% inhibition of SMAD7 mRNA expression” value was 1%. With “799224 (k[5mC]*k[5mC]*kA*dA*dT*d[5mC]*dT*dT*dG*dT*dG*dT*dT*kT*kA*kT; antisense) [compound 799224]” the “% Inhibition” value was 3%. In the case of “799343 (kA*k[5mC]*kT*dA*dA*dT*d[5mC]*dT*dA*d[5mC]*dA*dG*dA*k[5mC]*kT*kT; antisense) [compound 799343]”, the “% inhibition of SMAD7 mRNA expression” value is reported as 53%. For “799007 (kT*kG*k[5mC]*d[5mC]*dG*d[5mC]*dT*d[5mC]*d[5mC]*dT*dG*d[5mC]*dA*k[5mC]*kA*k[5mC]; antisense) [compound 799007]”, the “% inhibition of SMAD7 mRNA expression” value was 47%. For “798659 (k[5mC]*k[5mC]*k[5mC]*dA*d[5mC]*d[5mC]*d[5mC]*d[5mC]*dG*d[5mC]*dG*d[5mC]*dG*kG*k[5mC]*k[5mC]; antisense) [compound 798659]”, the “% inhibition of SMAD7 mRNA expression” value was 58%. For “799345 (k[5mC]*kG*kA*dG*dA*dA*dG*d[5mC]*d[5mC]*d[5mC]*dA*dG*dG*k[5mC]*k[5mC]*k[5mC]; antisense) [compound 799345]”, the “% inhibition of SMAD7 mRNA expression” value was 20%. “799074 (antisense k[5mC]*kA*kA*dA*dA*dA*dA*dG*dA*dA*dA*dG*dA*k[5mC]*kG*k[5mC]) [compound 799074]” was tested, and the “% Inhibition” value was 9%. In the case of “799169 (antisense kT*kT*kG*dA*dG*d[5mC]*dT*dA*dA*dG*dA*dA*d[5mC]*kA*kG*kT) [compound 799169]”, the “% inhibition of SMAD7 mRNA expression” value is reported as 0%.

Same assay, conditions: Hep3B cells, electroporation, 10,000 nM antisense oligonucleotide, approximately 24 hours, RTS5062, relative to untreated control cells
“799284 (antisense k[5mC]*kG*kT*dA*dA*dG*dA*d[5mC]*dA*dG*dA*d[5mC]*d[5mC]*kA*k[5mC]*kA) [compound 799284]” was tested, and the “% inhibition of SMAD7 mRNA expression” value was 51%. For “799701 (antisense k[5mC]*kT*kA*d[5mC]*dA*dG*dT*dT*d[5mC]*d[5mC]*dA*dG*dA*kA*k[5mC]*kA) [compound 799701]”, the “% inhibition of SMAD7 mRNA expression” value was 46%. For “799520 (antisense kG*kA*kT*dT*dG*dA*dT*dG*dT*dT*dG*dG*dG*k[5mC]*kT*kG) [compound 799520]”, the “% inhibition of SMAD7 mRNA expression” value was 51%. With “799613 (kT*k[5mC]*kA*d[5mC]*dA*dT*dT*d[5mC]*dG*dG*d[5mC]*dT*dG*kT*kT*kT; antisense) [compound 799613]” the “% inhibition of SMAD7 mRNA expression” value was 17%. With “799760 (antisense kT*kT*k[5mC]*dT*dA*dG*dG*dT*dG*dA*dA*d[5mC]*d[5mC]*kA*kT*kA) [compound 799760]” the “% inhibition of SMAD7 mRNA expression” value was 58%.

Same assay, conditions: SMAD7 mRNA, Hep3B cells, 10,000 nM antisense oligonucleotide, electroporation, approximately 24 hours, primer probe set RTS5062, relative to untreated control cells
In the case of “800999 (antisense k[5mC]*kA*kT*dT*d[5mC]*dA*dT*dT*dA*dA*dG*d[5mC]*d[5mC]*k[5mC]*kG*k[5mC]) [compound 800999]”, the “% Inhibition” value is reported as 54%.

Same assay, conditions: SMAD7 mRNA, Hep3B cells, electroporation with 10,000 nM antisense oligonucleotide, approximately 24 hours, primer probe set RTS5062, relative to untreated control cells
For “829973 (kA*kA*kG*dA*dG*dG*d[5mC]*d[5mC]*dG*d[5mC]*d[5mC]*dT*dG*kG*k[5mC]*kG; antisense) [compound 829973]”, the “% Inhibition” value was 17%. With “829972 (k[5mC]*kT*k[5mC]*dG*dG*d[5mC]*d[5mC]*dA*d[5mC]*dA*d[5mC]*dA*d[5mC]*k[5mC]*kT*k[5mC]; antisense) [compound 829972]” the “% Inhibition” value was 22%.
